Tests used:
Assay in all cases: relative viability (nuclei count vs DMSO), 5 days (fraction); higher = more cells survive
[1] = compound: COc1cc2nccc(Oc3ccc(NC(=O)C4(C(=O)Nc5ccc(F)cc5)CC4)cc3)c2cc1OC [Cabozantinib] + Nc1nc2[nH]cc(CCc3ccc(C(=O)N[C@@H](CCC(=O)O)C(=O)O)cc3)c2c(=O)[nH]1 [Pemetrexed] (partner 0.2 µM)
Outline: (§1)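 A single step with final 0.05% Triton X-100, 1% formaldehyde and 1 ug/ml Hoechst fixed the cells and stained nuclei 5 days after treatment. Lung cancer cell lines in 1536-well plates had been treated by pin tool the day after seeding with one drug alone or a fixed anchor-drug dose plus five library-drug doses (not always all listed) in √10 steps, and nuclei were counted on 4× images. Relative viability is the ratio of nuclei in treated wells to nuclei in vehicle wells, taken as the median of duplicate plates.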

[2] = compound: C1=CC(=CC=C1NC(=S)NNC2=C(C=C(C=C2[N+](=O)[O-])C(F)(F)F)[N+](=O)[O-])F [Kobe2602] + Cc1nc(Nc2ncc(C(=O)Nc3c(C)cccc3Cl)s2)cc(N2CCN(CCO)CC2)n1 [Dasatinib] (partner 0.075 µM)
Outline: as §1

[3] = compound: COc1cc2nccc(Oc3ccc(NC(=O)C4(C(=O)Nc5ccc(F)cc5)CC4)cc3)c2cc1OC [Cabozantinib] + CC1(C)CCC(c2ccc(Cl)cc2)=C(CN2CCN(c3ccc(C(=O)NS(=O)(=O)c4ccc(N[C@H](CCN5CCOCC5)CSc5ccccc5)c(S(=O)(=O)C(F)(F)F)c4)cc3)CC2)C1 [Navitoclax] (partner 0.5 µM)
Outline: as §1

[4] = compound: COc1cc2nccc(Oc3ccc(NC(=O)C4(C(=O)Nc5ccc(F)cc5)CC4)cc3)c2cc1OC [Cabozantinib] + CC(=O)c1c(C)c2cnc(Nc3ccc(N4CCNCC4)cn3)nc2n(C2CCCC2)c1=O [Palbociclib] (partner 0.5 µM)
Outline: as §1

## NCI-H1437
[1]; first compound 0.02 µM
  relative viability: 0.307
[1]; first compound 0.06325 µM
  relative viability: 0.35
[1]; first compound 0.2 µM
  relative viability: 0.316
[1]; first compound 0.6325 µM
  relative viability: 0.307
[1]; first compound 2 µM
  relative viability: 0.256
[2]; first compound 0.2 µM
  relative viability: 0.498
[2]; first compound 0.6325 µM
  relative viability: 0.431
[2]; first compound 2 µM
  relative viability: 0.351
[2]; first compound 6.325 µM
  relative viability: 0.459
[2]; first compound 20 µM
  relative viability: 0.615
[3]; first compound 0.02 µM
  relative viability: 1.2
[3]; first compound 0.06325 µM
  relative viability: 1.13
[3]; first compound 0.2 µM
  relative viability: 1.12
[3]; first compound 0.6325 µM
  relative viability: 1.13
[3]; first compound 2 µM
  relative viability: 1.02
[4]; first compound 0.02 µM
  relative viability: 0.312
[4]; first compound 0.06325 µM
  relative viability: 0.339
[4]; first compound 0.2 µM
  relative viability: 0.296
[4]; first compound 0.6325 µM
  relative viability: 0.344
[4]; first compound 2 µM
  relative viability: 0.302

## NCI-H1650
[1]; first compound 0.02 µM
  relative viability: 0.441
[1]; first compound 0.06325 µM
  relative viability: 0.435
[1]; first compound 0.2 µM
  relative viability: 0.337
[1]; first compound 0.6325 µM
  relative viability: 0.355
[1]; first compound 2 µM
  relative viability: 0.374
[2]; first compound 0.2 µM
  relative viability: 0.285
[2]; first compound 0.6325 µM
  relative viability: 0.396
[2]; first compound 2 µM
  relative viability: 0.285
[2]; first compound 6.325 µM
  relative viability: 0.255
[2]; first compound 20 µM
  relative viability: 0.227
[3]; first compound 0.02 µM
  relative viability: 1.19
[3]; first compound 0.06325 µM
  relative viability: 1.5
[3]; first compound 0.2 µM
  relative viability: 1.07
[3]; first compound 0.6325 µM
  relative viability: 1.23
[3]; first compound 2 µM
  relative viability: 1.06
[4]; first compound 0.02 µM
  relative viability: 0.361
[4]; first compound 0.06325 µM
  relative viability: 0.301
[4]; first compound 0.2 µM
  relative viability: 0.27
[4]; first compound 0.6325 µM
  relative viability: 0.36
[4]; first compound 2 µM
  relative viability: 0.486

## NCI-H1651
[1]; first compound 0.02 µM
  relative viability: 0.498
[1]; first compound 0.06325 µM
  relative viability: 0.732
[1]; first compound 0.2 µM
  relative viability: 0.588
[1]; first compound 0.6325 µM
  relative viability: 0.497
[1]; first compound 2 µM
  relative viability: 0.544
[2]; first compound 0.2 µM
  relative viability: 0.596
[2]; first compound 0.6325 µM
  relative viability: 0.362
[2]; first compound 2 µM
  relative viability: 0.429
[2]; first compound 6.325 µM
  relative viability: 0.402
[2]; first compound 20 µM
  relative viability: 0.37
[3]; first compound 0.02 µM
  relative viability: 1.19
[3]; first compound 0.06325 µM
  relative viability: 1.03
[3]; first compound 0.2 µM
  relative viability: 1.15
[3]; first compound 0.6325 µM
  relative viability: 0.974
[3]; first compound 2 µM
  relative viability: 0.928
[4]; first compound 0.02 µM
  relative viability: 0.512
[4]; first compound 0.06325 µM
  relative viability: 0.561
[4]; first compound 0.2 µM
  relative viability: 0.52
[4]; first compound 0.6325 µM
  relative viability: 0.495
[4]; first compound 2 µM
  relative viability: 0.495

## NCI-H1666
[1]; first compound 0.02 µM
  relative viability: 0.9
[1]; first compound 0.06325 µM
  relative viability: 0.902
[1]; first compound 0.2 µM
  relative viability: 0.873
[1]; first compound 0.6325 µM
  relative viability: 0.899
[1]; first compound 2 µM
  relative viability: 0.875
[2]; first compound 0.2 µM
  relative viability: 0.833
[2]; first compound 0.6325 µM
  relative viability: 0.825
[2]; first compound 2 µM
  relative viability: 0.777
[2]; first compound 6.325 µM
  relative viability: 0.899
[2]; first compound 20 µM
  relative viability: 0.735
[3]; first compound 0.02 µM
  relative viability: 0.889
[3]; first compound 0.06325 µM
  relative viability: 1.16
[3]; first compound 0.2 µM
  relative viability: 0.887
[3]; first compound 0.6325 µM
  relative viability: 0.996
[3]; first compound 2 µM
  relative viability: 1.13
[4]; first compound 0.02 µM
  relative viability: 0.642
[4]; first compound 0.06325 µM
  relative viability: 0.658
[4]; first compound 0.2 µM
  relative viability: 0.664
[4]; first compound 0.6325 µM
  relative viability: 0.662
[4]; first compound 2 µM
  relative viability: 0.642

## NCI-H1734
[1]; first compound 0.02 µM
  relative viability: 0.396
[1]; first compound 0.06325 µM
  relative viability: 0.435
[1]; first compound 0.2 µM
  relative viability: 0.413
[1]; first compound 0.6325 µM
  relative viability: 0.445
[1]; first compound 2 µM
  relative viability: 0.397
[2]; first compound 0.2 µM
  relative viability: 0.425
[2]; first compound 0.6325 µM
  relative viability: 0.543
[2]; first compound 2 µM
  relative viability: 0.432
[2]; first compound 6.325 µM
  relative viability: 0.478
[2]; first compound 20 µM
  relative viability: 0.468
[3]; first compound 0.02 µM
  relative viability: 0.8
[3]; first compound 0.06325 µM
  relative viability: 0.832
[3]; first compound 0.2 µM
  relative viability: 0.85
[3]; first compound 0.6325 µM
  relative viability: 0.818
[3]; first compound 2 µM
  relative viability: 0.667
[4]; first compound 0.02 µM
  relative viability: 0.4
[4]; first compound 0.06325 µM
  relative viability: 0.339
[4]; first compound 0.2 µM
  relative viability: 0.381
[4]; first compound 0.6325 µM
  relative viability: 0.389
[4]; first compound 2 µM
  relative viability: 0.325

## NCI-H1755
[1]; first compound 0.02 µM
  relative viability: 0.449
[1]; first compound 0.06325 µM
  relative viability: 0.415
[1]; first compound 0.2 µM
  relative viability: 0.436
[1]; first compound 0.6325 µM
  relative viability: 0.425
[1]; first compound 2 µM
  relative viability: 0.422
[2]; first compound 0.2 µM
  relative viability: 0.408
[2]; first compound 0.6325 µM
  relative viability: 0.407
[2]; first compound 2 µM
  relative viability: 0.359
[2]; first compound 6.325 µM
  relative viability: 0.408
[2]; first compound 20 µM
  relative viability: 0.437
[3]; first compound 0.02 µM
  relative viability: 1
[3]; first compound 0.06325 µM
  relative viability: 1.07
[3]; first compound 0.2 µM
  relative viability: 0.972
[3]; first compound 0.6325 µM
  relative viability: 0.87
[3]; first compound 2 µM
  relative viability: 0.807
[4]; first compound 0.02 µM
  relative viability: 0.471
[4]; first compound 0.06325 µM
  relative viability: 0.454
[4]; first compound 0.2 µM
  relative viability: 0.461
[4]; first compound 0.6325 µM
  relative viability: 0.43
[4]; first compound 2 µM
  relative viability: 0.446

## NCI-H1792
[1]; first compound 0.06325 µM
  relative viability: 1.27
[1]; first compound 0.2 µM
  relative viability: 0.868
[1]; first compound 0.6325 µM
  relative viability: 0.986
[1]; first compound 2 µM
  relative viability: 0.608
[2]; first compound 0.2 µM
  relative viability: 0.691
[2]; first compound 0.6325 µM
  relative viability: 0.949
[2]; first compound 2 µM
  relative viability: 0.894
[2]; first compound 6.325 µM
  relative viability: 0.85
[2]; first compound 20 µM
  relative viability: 0.787
[3]; first compound 0.02 µM
  relative viability: 0.59
[3]; first compound 0.06325 µM
  relative viability: 0.967
[3]; first compound 0.2 µM
  relative viability: 0.555
[3]; first compound 0.6325 µM
  relative viability: 0.637
[3]; first compound 2 µM
  relative viability: 0.589
[4]; first compound 0.06325 µM
  relative viability: 0.707
[4]; first compound 0.2 µM
  relative viability: 0.668
[4]; first compound 0.6325 µM
  relative viability: 0.679
[4]; first compound 2 µM
  relative viability: 0.579

## NCI-H1793
[1]; first compound 0.02 µM
  relative viability: 0.865
[1]; first compound 0.06325 µM
  relative viability: 0.917
[1]; first compound 0.6325 µM
  relative viability: 0.73
[1]; first compound 2 µM
  relative viability: 0.588
[2]; first compound 0.2 µM
  relative viability: 0.367
[2]; first compound 0.6325 µM
  relative viability: 0.4
[2]; first compound 2 µM
  relative viability: 0.361
[2]; first compound 6.325 µM
  relative viability: 0.397
[2]; first compound 20 µM
  relative viability: 0.398
[3]; first compound 0.02 µM
  relative viability: 0.477
[3]; first compound 0.06325 µM
  relative viability: 0.514
[3]; first compound 0.2 µM
  relative viability: 0.267
[3]; first compound 0.6325 µM
  relative viability: 0.235
[3]; first compound 2 µM
  relative viability: 0.29
[4]; first compound 0.02 µM
  relative viability: 0.338
[4]; first compound 0.06325 µM
  relative viability: 0.313
[4]; first compound 0.6325 µM
  relative viability: 0.277
[4]; first compound 2 µM
  relative viability: 0.252
